Measurements as given in the supplement of paper PMC10307832.

Legend:
Assay in all cases: relative viability (nuclei count vs DMSO), 5 days (fraction); higher = more cells survive
BEN = system: BEN
In short: (§1)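 Each reported value is a median over duplicate plates. It expresses relative viability: treated-well nuclei count divided by vehicle-well nuclei count. Lung cancer cell lines in 1536-well plates were dosed by pin tool a day after seeding, alone with one drug or with a fixed anchor-drug dose plus five library-drug doses (not always all listed) in √10 steps, and nuclei were counted after 5 days.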

ChaGo-K-1 = system: ChaGo-K-1
In short: as §1

HCC-78 = system: HCC-78
In short: as §1

LC-2-ad = system: LC-2-ad
In short: as §1

LCLC-97TM1 = system: LCLC-97TM1
In short: as §1

LK-2 = system: LK-2
In short: as §1

LU99A = system: LU99A
In short: as §1

LXF-289 = system: LXF-289
In short: as §1

NCI-H1355 = system: NCI-H1355
In short: as §1

NCI-H1651 = system: NCI-H1651
In short: as §1

NCI-H1666 = system: NCI-H1666
In short: as §1

NCI-H1944 = system: NCI-H1944
In short: as §1

NCI-H1975 = system: NCI-H1975
In short: as §1

NCI-H2087 = system: NCI-H2087
In short: as §1

NCI-H2342 = system: NCI-H2342
In short: as §1

NCI-H358 = system: NCI-H358
In short: as §1

NCI-H596 = system: NCI-H596
In short: as §1

NCI-H650 = system: NCI-H650
In short: as §1

NCI-H661 = system: NCI-H661
In short: as §1

NCI-H838 = system: NCI-H838
In short: as §1

PC-3 [JPC-3] = system: PC-3 [JPC-3]
In short: as §1

SK-MES-1 = system: SK-MES-1
In short: as §1

Nc1ccn([C@@H]2O[C@H](CO)[C@@H](O)[C@@H]2O)c(=O)n1 [Cytarabine] + Nc1ncn([C@H]2C[C@H](O)[C@@H](CO)O2)c(=O)n1 [Decitabine] (partner 2 µM)
relative viability (BEN; first compound 0.005 µM): 0.675
relative viability (BEN; first compound 0.01581 µM): 0.558
relative viability (BEN; first compound 0.05 µM): 0.43
relative viability (BEN; first compound 0.1581 µM): 0.345
relative viability (BEN; first compound 0.5 µM): 0.31
relative viability (ChaGo-K-1; first compound 0.005 µM): 0.475
relative viability (ChaGo-K-1; first compound 0.01581 µM): 0.413
relative viability (ChaGo-K-1; first compound 0.05 µM): 0.339
relative viability (ChaGo-K-1; first compound 0.1581 µM): 0.252
relative viability (ChaGo-K-1; first compound 0.5 µM): 0.225
relative viability (HCC-78; first compound 0.005 µM): 0.715
relative viability (HCC-78; first compound 0.01581 µM): 0.668
relative viability (HCC-78; first compound 0.05 µM): 0.587
relative viability (HCC-78; first compound 0.1581 µM): 0.492
relative viability (HCC-78; first compound 0.5 µM): 0.44
relative viability (LC-2-ad; first compound 0.005 µM): 0.727
relative viability (LC-2-ad; first compound 0.01581 µM): 0.682
relative viability (LC-2-ad; first compound 0.05 µM): 0.759
relative viability (LC-2-ad; first compound 0.1581 µM): 0.69
relative viability (LC-2-ad; first compound 0.5 µM): 0.499
relative viability (LCLC-97TM1; first compound 0.005 µM): 0.205
relative viability (LCLC-97TM1; first compound 0.01581 µM): 0.164
relative viability (LCLC-97TM1; first compound 0.05 µM): 0.211
relative viability (LCLC-97TM1; first compound 0.1581 µM): 0.127
relative viability (LCLC-97TM1; first compound 0.5 µM): 0.111
relative viability (LK-2; first compound 0.005 µM): 0.234
relative viability (LK-2; first compound 0.01581 µM): 0.249
relative viability (LK-2; first compound 0.05 µM): 0.15
relative viability (LK-2; first compound 0.1581 µM): 0.0989
relative viability (LK-2; first compound 0.5 µM): 0.132
relative viability (LU99A; first compound 0.005 µM): 0.863
relative viability (LU99A; first compound 0.01581 µM): 0.781
relative viability (LU99A; first compound 0.05 µM): 0.93
relative viability (LU99A; first compound 0.1581 µM): 0.925
relative viability (LU99A; first compound 0.5 µM): 0.823
relative viability (LXF-289; first compound 0.005 µM): 0.387
relative viability (LXF-289; first compound 0.01581 µM): 0.312
relative viability (LXF-289; first compound 0.05 µM): 0.314
relative viability (LXF-289; first compound 0.1581 µM): 0.227
relative viability (LXF-289; first compound 0.5 µM): 0.197
relative viability (NCI-H1355; first compound 0.005 µM): 0.349
relative viability (NCI-H1355; first compound 0.01581 µM): 0.332
relative viability (NCI-H1355; first compound 0.05 µM): 0.337
relative viability (NCI-H1355; first compound 0.1581 µM): 0.242
relative viability (NCI-H1355; first compound 0.5 µM): 0.255
relative viability (NCI-H1651; first compound 0.005 µM): 0.646
relative viability (NCI-H1651; first compound 0.01581 µM): 0.493
relative viability (NCI-H1651; first compound 0.05 µM): 0.167
relative viability (NCI-H1651; first compound 0.1581 µM): 0.281
relative viability (NCI-H1651; first compound 0.5 µM): 0.213
relative viability (NCI-H1666; first compound 0.005 µM): 0.73
relative viability (NCI-H1666; first compound 0.01581 µM): 0.633
relative viability (NCI-H1666; first compound 0.05 µM): 0.543
relative viability (NCI-H1666; first compound 0.1581 µM): 0.523
relative viability (NCI-H1666; first compound 0.5 µM): 0.455
relative viability (NCI-H1944; first compound 0.005 µM): 0.335
relative viability (NCI-H1944; first compound 0.01581 µM): 0.347
relative viability (NCI-H1944; first compound 0.05 µM): 0.319
relative viability (NCI-H1944; first compound 0.1581 µM): 0.194
relative viability (NCI-H1944; first compound 0.5 µM): 0.151
relative viability (NCI-H1975; first compound 0.005 µM): 0.336
relative viability (NCI-H1975; first compound 0.01581 µM): 0.353
relative viability (NCI-H1975; first compound 0.05 µM): 0.562
relative viability (NCI-H1975; first compound 0.1581 µM): 0.271
relative viability (NCI-H1975; first compound 0.5 µM): 0.257
relative viability (NCI-H2087; first compound 0.005 µM): 0.316
relative viability (NCI-H2087; first compound 0.01581 µM): 0.225
relative viability (NCI-H2087; first compound 0.05 µM): 0.303
relative viability (NCI-H2087; first compound 0.1581 µM): 0.109
relative viability (NCI-H2087; first compound 0.5 µM): 0.133
relative viability (NCI-H2342; first compound 0.005 µM): 0.712
relative viability (NCI-H2342; first compound 0.01581 µM): 0.702
relative viability (NCI-H2342; first compound 0.05 µM): 0.7
relative viability (NCI-H2342; first compound 0.1581 µM): 0.482
relative viability (NCI-H2342; first compound 0.5 µM): 0.483
relative viability (NCI-H358; first compound 0.005 µM): 0.229
relative viability (NCI-H358; first compound 0.01581 µM): 0.205
relative viability (NCI-H358; first compound 0.05 µM): 0.226
relative viability (NCI-H358; first compound 0.1581 µM): 0.133
relative viability (NCI-H358; first compound 0.5 µM): 0.107
relative viability (NCI-H596; first compound 0.005 µM): 0.858
relative viability (NCI-H596; first compound 0.01581 µM): 0.916
relative viability (NCI-H596; first compound 0.05 µM): 0.658
relative viability (NCI-H596; first compound 0.1581 µM): 0.581
relative viability (NCI-H596; first compound 0.5 µM): 0.767
relative viability (NCI-H650; first compound 0.005 µM): 0.326
relative viability (NCI-H650; first compound 0.01581 µM): 0.255
relative viability (NCI-H650; first compound 0.05 µM): 0.247
relative viability (NCI-H650; first compound 0.1581 µM): 0.152
relative viability (NCI-H650; first compound 0.5 µM): 0.152
relative viability (NCI-H661; first compound 0.005 µM): 0.556
relative viability (NCI-H661; first compound 0.01581 µM): 0.509
relative viability (NCI-H661; first compound 0.05 µM): 0.519
relative viability (NCI-H661; first compound 0.1581 µM): 0.422
relative viability (NCI-H661; first compound 0.5 µM): 0.295
relative viability (NCI-H838; first compound 0.005 µM): 0.476
relative viability (NCI-H838; first compound 0.01581 µM): 0.407
relative viability (NCI-H838; first compound 0.05 µM): 0.427
relative viability (NCI-H838; first compound 0.1581 µM): 0.311
relative viability (NCI-H838; first compound 0.5 µM): 0.274
relative viability (PC-3 [JPC-3]; first compound 0.005 µM): 0.824
relative viability (PC-3 [JPC-3]; first compound 0.01581 µM): 0.763
relative viability (PC-3 [JPC-3]; first compound 0.05 µM): 0.581
relative viability (PC-3 [JPC-3]; first compound 0.1581 µM): 0.468
relative viability (PC-3 [JPC-3]; first compound 0.5 µM): 0.507
relative viability (SK-MES-1; first compound 0.005 µM): 0.29
relative viability (SK-MES-1; first compound 0.01581 µM): 0.211
relative viability (SK-MES-1; first compound 0.05 µM): 0.205
relative viability (SK-MES-1; first compound 0.1581 µM): 0.183
relative viability (SK-MES-1; first compound 0.5 µM): 0.155
